Data on 15 compounds can be found in ChEMBL document CHEMBL1268882, “Synthesis and biological evaluation of novel triptolide analogues for anticancer activity” (Bioorg Med Chem Lett, 2010).

What is called IC50 is the point on the concentration scale where inhibition reaches its midpoint. The low end stands for higher potency, the high end for lower potency.

Molecules are shown by their SMILES.

For assay [1], the system named is SK-OV-3. Description: Antiproliferative activity against human SKOV3 cells after 72 hrs by SRB assay. The format is functional, cell-based. To be noted: SK-OV-3, 72 h.
The subject of assay [2] is PC-3. Description: Antiproliferative activity against human PC3 cells after 72 hrs by SRB assay. The class given is functional, cell-based. To be noted: PC-3, 72 h. Background: The SRB assay estimates cell density from bound dye.

As to `CC(C)[C@]12O[C@H]1C=C1[C@]3(O[C@H]3C[C@H]3C4=C(CC[C@]13C)C(=O)OC4)C2=O`, the IC50 in assay [1] was 3 nM; in assay [2] it was 2.7 µM. Regarding `CC(C)[C@]12O[C@H]1C=C1[C@]3(O[C@H]3C[C@H]3C4=C(CC[C@]13C)C(=O)OC4)[C@@H]2O`, the figures for the IC50 in assay [1] and in assay [2] were 0.05 nM and 0.01 µM, respectively.

With `CC(C)[C@]12O[C@H]1C=C1[C@]3(O[C@H]3C[C@H]3C4=C(CC[C@]13C)C(=O)OC4)[C@H]2O`, the IC50 in assay [1] amounted to 500 nM; in assay [2], 29 µM. For `CC(C)[C@]12O[C@H]1[C@H](O)[C@@]1(O)[C@@]3(C)CCC4=C(COC4=O)[C@@H]3C[C@@H]3O[C@@]31C2=O` the same measures were above 100000 nM and above 100 µM.

Turning to `CC(C)[C@]12O[C@H]1C=C1[C@]3(O[C@H]3C[C@H]3C4=C(CC[C@]13C)C(=O)NC4)C2=O`, the half-maximal inhibitory concentration (IC50) worked out at 20 nM in assay [1] and 0.9 µM in assay [2]. For `CC(C)[C@]12O[C@H]1[C@@H]1O[C@@]13[C@@]1(C)CCC4=C(CNC4=O)[C@@H]1C[C@@H]1O[C@@]13C2=O` the same measures were 20 nM and 14 µM. As for `CC(C)[C@@]12O[C@@H]1C=C1[C@]3(O[C@H]3C[C@@H]3C4=C(CC[C@]13C)C(=O)OC4)C2=O`, the IC50 in assay [1] is 95000 nM; in assay [2] it was above 100 µM. For the compound `CC(C)[C@]12O[C@H]1C=C1[C@]3(O[C@H]3C[C@@H]3C4=C(CC[C@]13C)C(=O)OC4)C2=O`, the IC50 turned out to be 66000 nM in assay [1] and 29 µM in assay [2]. For the compound `CC(C)[C@@]12O[C@@H]1[C@H]1O[C@]13[C@@]1(C)CCC4=C(COC4=O)[C@H]1C[C@@H]1O[C@@]13C2=O`, the IC50 in assay [1] was above 100000 nM; in assay [2], above 100 µM. For `CC(C)[C@]12O[C@H]1[C@H]1O[C@]13[C@@]1(C)CCC4=C(COC4=O)[C@H]1C[C@@H]1O[C@@]13C2=O` the same measures were above 100000 nM and above 100 µM.

Regarding `CC(C)[C@]12O[C@H]1C=C1[C@]3(O[C@H]3C[C@@H]3C4=C(CC[C@]13C)C(=O)OC4)[C@@H]2O`, the IC50 in assay [1] was above 100000 nM; in assay [2], above 100 µM. For `CC(C)[C@]12O[C@H]1[C@H]1O[C@]13[C@@]1(C)CCC4=C(COC4=O)[C@H]1C[C@H]1O[C@@]13C2=O` the same measures were 4600 nM and above 100 µM. For `CC(C)[C@@]12O[C@@H]1C=C1[C@]3(O[C@@H]3C[C@@H]3C4=C(CC[C@]13C)C(=O)OC4)[C@@H]2O` the same measures were 56000 nM and above 100 µM. For `CC(C)[C@]12O[C@H]1[C@@H]1O[C@]13[C@]1(O[C@H]1C[C@H]1C4=C(CC[C@@]13C)C(=O)OC4)[C@@H]2O` [TRIPTOLIDE], the IC50 in assay [1] was found to be 6 nM. On to `CC(C)[C@]12O[C@H]1[C@@H]1O[C@@]13[C@@]1(C)CCC4=C(COC4=O)[C@@H]1C[C@@H]1O[C@@]13C2=O` [TRIPTONIDE], for which the concentration for half-maximal inhibition (IC50) in assay [1] is 8 nM; in assay [2], 0.6 µM.
